Measurements: ChEMBL document CHEMBL2157964, “Effect of alkyl chain length on sphingosine kinase 2 selectivity” (Bioorg Med Chem Lett, 2012)

What was measured:
Sphingosine kinase 1 [1] = target: T1, Sphingosine kinase 1 (Homo sapiens, UniProt Q9NYA1); test: Inhibition of recombinant SphK1 expressed in baculovirus infected Sf9 cells using D-erythro-sphingosine as substrate and [32gammaP]ATP by scintillation counting
Sphingosine kinase 1 [2] = target: T1, Sphingosine kinase 1; test: Inhibition of recombinant SphK1 expressed in baculovirus infected Sf9 cells using D-erythro-sphingosine as substrate and [32gammaP]ATP assessed as residual activity at 10 uM by scintillation counting
Sphingosine kinase 2 [3] = target: T2, Sphingosine kinase 2 (Homo sapiens, UniProt Q9NRA0); test: Inhibition of recombinant SphK2 expressed in baculovirus infected Sf9 cells using D-erythro-sphingosine as substrate and [32gammaP]ATP by scintillation counting
T2 sequence (Q9NRA0 whole entry): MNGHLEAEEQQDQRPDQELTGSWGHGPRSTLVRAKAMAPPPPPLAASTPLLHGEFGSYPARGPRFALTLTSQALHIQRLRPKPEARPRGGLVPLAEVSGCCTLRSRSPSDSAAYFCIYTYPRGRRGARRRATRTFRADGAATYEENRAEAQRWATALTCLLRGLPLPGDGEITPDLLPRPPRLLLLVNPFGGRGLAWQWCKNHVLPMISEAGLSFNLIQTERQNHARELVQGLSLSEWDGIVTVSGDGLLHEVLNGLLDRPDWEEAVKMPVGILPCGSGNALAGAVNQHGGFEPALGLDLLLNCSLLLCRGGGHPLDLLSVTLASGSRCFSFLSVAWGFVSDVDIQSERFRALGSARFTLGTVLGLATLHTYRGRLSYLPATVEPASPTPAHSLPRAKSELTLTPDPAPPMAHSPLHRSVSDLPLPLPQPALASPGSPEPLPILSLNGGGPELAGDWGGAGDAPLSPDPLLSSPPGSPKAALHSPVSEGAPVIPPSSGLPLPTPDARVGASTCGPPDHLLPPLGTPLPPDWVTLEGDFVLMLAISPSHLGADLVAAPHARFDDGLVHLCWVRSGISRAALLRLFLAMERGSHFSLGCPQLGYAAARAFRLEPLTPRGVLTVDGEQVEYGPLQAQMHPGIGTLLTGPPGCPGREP

[4] = target: T3, Sphingosine kinase 2 (Homo sapiens) (UniProt Q9NRA0); test: Inhibition of recombinant SphK2 expressed in baculovirus infected Sf9 cells using D-erythro-sphingosine as substrate and [32gammaP]ATP assessed as residual activity at 10 uM by scintillation counting
T3 sequence (whole entry): T2 sequence (Q9NRA0 whole entry)

Sphingosine kinase 2 [5] = target: T2, Sphingosine kinase 2; test: Inhibition of human recombinant SphK2 using NBD-sphingosine as substrate after 2 hrs by HPLC analysis
Sphingosine kinase 2 [6] = target: T2, Sphingosine kinase 2; test: Inhibition of SphK2 using sphingosine as substrate and [32gammaP]ATP after 15 to 20 mins by Cerenkov counting analysis
[7] = Selectivity ratio of Ki for recombinant SphK1 to Ki for recombinant SphK2

T1 sequence (Q9NYA1 whole entry): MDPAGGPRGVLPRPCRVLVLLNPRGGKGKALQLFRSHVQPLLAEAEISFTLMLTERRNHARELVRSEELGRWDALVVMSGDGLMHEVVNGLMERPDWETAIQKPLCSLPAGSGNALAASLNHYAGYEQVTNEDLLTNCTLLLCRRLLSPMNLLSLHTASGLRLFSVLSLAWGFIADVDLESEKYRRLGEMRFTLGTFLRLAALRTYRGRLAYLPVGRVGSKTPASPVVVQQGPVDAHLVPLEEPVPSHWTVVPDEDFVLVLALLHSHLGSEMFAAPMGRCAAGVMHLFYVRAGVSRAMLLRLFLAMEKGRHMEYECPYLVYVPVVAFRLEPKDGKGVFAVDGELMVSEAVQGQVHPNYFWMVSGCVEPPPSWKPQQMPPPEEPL

SMILES | Ki (Sphingosine kinase 1 [1]) [µM] | Activity (Sphingosine kinase 1 [2]) [%] | Ki (Sphingosine kinase 2 [3]) [µM] | Activity [4] [%] | Ki (Sphingosine kinase 2 [5]) [µM] | Ki (Sphingosine kinase 2 [6]) [µM] | Ratio Ki [7]
O=C(NCc1ccncc1)C12CC3CC(C1)CC(c1ccc(Cl)cc1)(C3)C2 [ABC-294640] | – | – | – | – | 9.8 | – | –
CCCCCCCCCCCCCCCC(=O)c1ccc([C@H]2CC[C@H]([N+](C)(C)CCC)CC2)cc1 | – | 77 | – | 58 | – | – | –
CCCCCC(=O)c1ccc([C@H]2CC[C@H]([N+](C)(C)CCC)CC2)cc1 | – | 89 | – | 71 | – | – | –
CCCCCCCCCCCCc1ccc([C@H]2CC[C@H]([N+](C)(C)CCC)CC2)cc1 | 13 | 63 | 8 | 26 | – | – | –
CCCCCCCOc1ccc([C@H]2CC[C@H]([N+](C)(C)CCC)CC2)cc1 | – | 100 | – | 70 | – | – | –
CCCCCCCC#Cc1ccc([C@H]2CC[C@H]([N+](C)(C)CCC)CC2)cc1 | – | 87 | – | 100 | – | – | –
CCCCCCCCCCCCCC(=O)c1ccc([C@H]2CC[C@H]([N+](C)(C)CCC)CC2)cc1 | – | 73 | – | 50 | – | – | –
CCCCCCCCCCCC(=O)c1ccc([C@H]2CC[C@H]([N+](C)(C)CCC)CC2)cc1 | – | 88 | – | 41 | – | – | –
CCCCCCCCC#Cc1ccc([C@H]2CC[C@H]([N+](C)(C)CCC)CC2)cc1 | – | 61 | – | 78 | – | – | –
CCCCCCCCCC#Cc1ccc([C@H]2CC[C@H]([N+](C)(C)CCC)CC2)cc1 | – | 62 | – | 28 | – | – | –

Second part, the compound after the results:

Ki (Sphingosine kinase 1 [1]) [µM] | Activity (Sphingosine kinase 1 [2]) [%] | Ki (Sphingosine kinase 2 [3]) [µM] | Activity [4] [%] | Ki (Sphingosine kinase 2 [5]) [µM] | Ki (Sphingosine kinase 2 [6]) [µM] | Ratio Ki [7] | SMILES
15 | 44 | 11 | 50 | – | – | – | CCCCCCCCCCCc1ccc([C@H]2CC[C@H]([N+](C)(C)CCC)CC2)cc1
– | – | – | – | – | 16.5 | – | CCCCCCCCc1ccc(CC[C@@](N)(CO)COC)cc1
35 | 67 | 43 | 26 | – | – | – | CCCCCCCCCCc1ccc([C@H]2CC[C@H]([N+](C)(C)CCC)CC2)cc1
– | 79 | – | 40 | – | – | – | CCCCCCCCCCC(=O)c1ccc([C@H]2CC[C@H]([N+](C)(C)CCC)CC2)cc1
35 | 98 | 43 | 98 | – | – | – | CCCCCCc1ccc([C@H]2CC[C@H]([N+](C)(C)CCC)CC2)cc1
27 | 94 | 29 | 70 | – | – | – | CCCCCCCCCCCCCCCCc1ccc([C@H]2CC[C@H]([N+](C)(C)CCC)CC2)cc1
– | 93 | – | 75 | – | – | – | CCCCCCCCCC(=O)c1ccc([C@H]2CC[C@H]([N+](C)(C)CCC)CC2)cc1
36 | 76 | 7 | 38 | – | – | 3 | CCCCCCCCCCCCCCc1ccc([C@H]2CC[C@H]([N+](C)(C)CCC)CC2)cc1
22 | 100 | 21 | 64 | – | – | – | CCCCCCCCc1ccc([C@H]2CC[C@H]([N+](C)(C)CCC)CC2)cc1
